In patent US20040023994A1 (priority 2002, published 2004):
“Also recorded” adds a separate entry of the source.

Assays:
A-498 cells = assay: MTT cytotoxicity assay; type: cell-based, human; details: for IC50: A-498, 72 h incubation, MTT
Experimental: (§1) Preliminary studies examining the in vitro cytotoxicity of cis-AVTP and trans-AVTG as compared to the parent drugs, were carried out using the 3-[4,5-dimethylthiazol-2-yl]-2,5-diphenyl tetrazolium bromide (MTT) cytotoxicity assay.

ACHN cells = assay: MTT cytotoxicity assay; type: cell-based, human; details: for IC50: 72 h incubation, MTT
Experimental: as §1

For Cn1cnc([N+](=O)[O-])c1Sc1ncnc2nc[nH]c12 [AZA, azathioprine], the IC50 (A-498 cells; Homo sapiens, A498) was 50.2 ± 10.4 µM and the IC50 (ACHN cells; Homo sapiens) was 22.1 µM.

In the case of CC(=O)C=Cc1ccccc1 [PBO, phenylbutenone], the IC50 (A-498 cells) is reported as 252 ± 149 µM and the IC50 (ACHN cells) is reported as 62.3 ± 10.7 µM.

For O=C(O)/C=C\Sc1ncnc2[nH]cnc12 [PTA, cis-3-(9H-purin-6-ylthio)acrylic acid], the cytotoxicity (A-498 cells; A-498, within the concentration range examined (up to 500 μM)) was “little cytotoxicity; also recorded: not cytotoxic” and the cytotoxicity (ACHN cells; within the concentration range examined (up to 500 μM)) was “little cytotoxicity; also recorded: not cytotoxic”.
